# Reference: patent US20230310660A1, “SHELF-STABLE INDOCYANINE GREEN SOLUTIONS AND METHODS OF MAKING THE SAME” (CAO Group, Inc., priority 2020, published 2023)
# How the values were obtained:
# [1] = Shelf stability of indocyanine green dissolved in water-free organic solvent; type: physicochemical; conditions: absence of water, room temperature
# Source text: Through experimentation, it has been determined that the biggest cause of instability within ICG solutions to be nothing other than water and the second most recognizable factor is temperature. Therefore, with the instability factors identified the present invention identifies by way of experimentation with other solutions within which ICG is stable. An embodiment of the present invention utilizes organic liquids to create shelf stable ICG solutions. The present invention is a method of creating a shelf-stable, liquid, indocyanine green solution.
# More importantly, the type of organic solvent selected is not the important factor for stability—only the absence of water is required.
# When creating the solution, the manufacturing method is to add the ICG to the solvent(s) and stir until it dissolves. Thereafter the solution is loading in an airtight sealed container, thereby preventing the introduction of ambient air, which may contain water vapor, into the container.
# [2] = after mixing with water; cited from earlier work
structure (smiles),measurement,setting,value
CC1(C)C(/C=C/C=C/C=C/C=C2\N(CCCCS(=O)(=O)O)c3ccc4ccccc4c3C2(C)C)=[N+](CCCCS(=O)(=O)[O-])c2ccc3ccccc3c21 [indocyanine green],shelf stable (shelf life of solution),[1],up to 1 year
same,shelf stable (shelf life of solution),[1]; listed as ICG,up to one
same,shelf life of ICG solutions (unstable),[2],a few days
